Source: PubChem BioAssay (NCI)
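96-well plates; 48 h exposure; 5 concentrations. Endpoints by linear interpolation between flanking doses. Not reached: highest tested concentration assigned. GI50 marks 50% less growth. TGI is the concentration that stops growth completely.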

Columns and labels:
Assay in all cases: growth of human tumour cells (NCI), 48 h
[1] = test system: HCC-2998 colon
[2] = test system: SNB-19 CNS
[3] = test system: HCT-116 colon
[4] = test system: K-562 leukemia
[5] = test system: MDA-MB-435
[6] = test system: OVCAR-3 ovarian
[7] = test system: SF-295 CNS
[8] = test system: MALME-3M melanoma
[9] = test system: SK-MEL-28 melanoma
[10] = test system: CAKI-1 renal
[11] = test system: U251 CNS
[12] = test system: HOP-92 NSCLC
[13] = test system: IGROV1 ovarian
[14] = test system: LOX IMVI melanoma
[15] = test system: NCI/ADR-RES ovarian
[16] = test system: SK-OV-3 ovarian
[17] = test system: HS 578T breast
[18] = test system: MDA-MB-231 breast
[19] = test system: NCI-H460 lung
[20] = test system: SW-620 colon
[21] = test system: OVCAR-5 ovarian
[22] = test system: M14 melanoma
[23] = test system: EKVX NSCLC
[24] = test system: NCI-H23 lung
[25] = test system: SF-268 CNS
[26] = test system: 786-0 renal
[27] = test system: RXF 393 renal
[28] = test system: TK-10 renal
[29] = test system: MOLT-4 leukemia
[30] = test system: HT29 colon
[31] = test system: SF-539 CNS
[32] = test system: UO-31 renal
[33] = test system: KM12 colon
[34] = test system: HL-60(TB) leukemia
[35] = test system: RPMI-8226 leukemia
[36] = test system: A549 NSCLC
[37] = test system: COLO 205 colon
[38] = test system: UACC-62 melanoma
[39] = test system: OVCAR-4 ovarian
[40] = test system: UACC-257 melanoma
[41] = test system: A498 renal
[42] = test system: CCRF-CEM leukemia
[43] = test system: OVCAR-8 ovarian
[44] = test system: T-47D breast
[45] = test system: SK-MEL-5 melanoma
[46] = test system: NCI-H522 lung
[47] = test system: HCT-15 colon
[48] = test system: HOP-62 NSCLC
[49] = test system: MCF7 breast
[50] = test system: SN12C renal
[51] = test system: SR leukemia
[52] = test system: ACHN renal
[53] = test system: SK-MEL-2 melanoma
[54] = test system: BT-549 breast
[55] = test system: DU-145 prostate
[56] = test system: PC-3 prostate

O=C1Nc2ccccc2C1(c1c[nH]c2ccccc12)c1c[nH]c2ccccc12
GI50 [1]: 1.82 µM | TGI [1]: 3.75 µM | GI50 [2]: 2.73 µM | TGI [2]: 8.35 µM | GI50 [3]: 2.48 µM | TGI [3]: 6.29 µM | GI50 [4]: 3.94 µM | TGI [4]: > 100 µM | GI50 [5]: 3.34 µM | TGI [5]: 11.7 µM | GI50 [6]: 2.14 µM | TGI [6]: 4.84 µM | GI50 [7]: 2.02 µM | TGI [7]: 4.7 µM | GI50 [8]: 2.47 µM | TGI [8]: 6.93 µM | GI50 [9]: 5.7 µM | TGI [9]: 20 µM | GI50 [10]: 1.85 µM | TGI [10]: 4.37 µM | GI50 [11]: 2.69 µM | TGI [11]: 7.49 µM | GI50 [12]: 1.87 µM | TGI [12]: 4.95 µM | GI50 [13]: 2.04 µM | TGI [13]: 5.09 µM | GI50 [14]: 1.7 µM | TGI [14]: 3.32 µM | GI50 [15]: 2.15 µM | TGI [15]: 5.03 µM | GI50 [16]: 2.72 µM | TGI [16]: 7.74 µM | GI50 [17]: 2.05 µM | TGI [17]: 5.16 µM | GI50 [18]: 2.3 µM | TGI [18]: 5.96 µM | GI50 [19]: 2.84 µM | TGI [19]: 8.21 µM | GI50 [20]: 3.22 µM | TGI [20]: 13.1 µM | GI50 [21]: 2.52 µM | TGI [21]: 7.6 µM | GI50 [22]: 2.39 µM | TGI [22]: 7.17 µM | GI50 [23]: 1.7 µM | TGI [23]: 3.84 µM | GI50 [24]: 2.08 µM | TGI [24]: 4.48 µM | GI50 [25]: 2.8 µM | TGI [25]: 13.9 µM | GI50 [26]: 2.01 µM | TGI [26]: 4.11 µM | GI50 [27]: 1.94 µM | TGI [27]: 3.76 µM | GI50 [28]: 2.31 µM | TGI [28]: 5.41 µM | GI50 [29]: 3.77 µM | TGI [29]: 28.9 µM | GI50 [30]: 3.23 µM | TGI [30]: 11.4 µM | GI50 [31]: 2.07 µM | TGI [31]: 4.31 µM | GI50 [32]: 1.18 µM | TGI [32]: 3.04 µM | GI50 [33]: 2.3 µM | TGI [33]: 5.96 µM | GI50 [34]: 3.72 µM | TGI [34]: 37.6 µM | GI50 [35]: 4.25 µM | TGI [35]: 38.5 µM | GI50 [36]: 2.18 µM | TGI [36]: 5.31 µM | GI50 [37]: 1.93 µM | TGI [37]: 3.86 µM | GI50 [38]: 1.96 µM | TGI [38]: 5.09 µM | GI50 [39]: 2.48 µM | TGI [39]: 7.45 µM | GI50 [40]: 3.67 µM | TGI [40]: 16.6 µM | GI50 [41]: 1.81 µM | TGI [41]: 3.63 µM | GI50 [42]: 4.43 µM | TGI [42]: 45.8 µM | GI50 [43]: 2.15 µM | TGI [43]: 5.18 µM | GI50 [44]: 1.99 µM | TGI [44]: 4.69 µM | GI50 [45]: 2.18 µM | TGI [45]: 4.81 µM | GI50 [46]: 2.01 µM | TGI [46]: 4.71 µM | GI50 [47]: 2.57 µM | TGI [47]: 7.69 µM | GI50 [48]: 1.93 µM | TGI [48]: 4.95 µM | GI50 [49]: 2.06 µM | TGI [49]: 4.74 µM | GI50 [50]: 1.89 µM | TGI [50]: 4.29 µM | GI50 [51]: 4 µM | TGI [51]: > 100 µM | GI50 [52]: 1.82 µM | TGI [52]: 3.58 µM | GI50 [53]: 2.08 µM | TGI [53]: 4.51 µM | GI50 [54]: 2.06 µM | TGI [54]: 4.68 µM | GI50 [55]: 2.09 µM | TGI [55]: 4.2 µM | GI50 [56]: 2.05 µM | TGI [56]: 5.75 µM
